Data from article PMC11865982, “Structure–Activity Relationships and Biological Insights into PSMA-617 and Its Derivatives with Modified Lipophilic Linker Regions” (ACS Omega, 2025).

Key:
[1] = linker amino acid building block; source not stated; cited from earlier work
PC3-PIP cells = assay: Cellular internalization assay; format: cell-based, human; settings: 30 nM radioligand, 45 min 37 °C, average ± SD (n = 3)
Experimental: To further characterize P17 and P18, internalization assays were conducted to determine whether the structural modifications of the linker have an impact on the uptake of the inhibitor–enzyme complex into the cell, which is critical for efficient retention in vivo.
(§1) Cell culture media and supplements were purchased from PAN Biotech if not stated otherwise. In vitro assays were performed using the sublines of the androgen-independent PC3 human PCa cell line, PSMA-positive (PSMA+) PC3-PIP and PSMA-negative (PSMA−) PC3-flu cells, purchased from Johns Hopkins University (Baltimore, […], USA). Both cell lines were housed in a humidified atmosphere of 5% CO2 at 37 °C and cultured in RPMI-1640 medium supplemented with 10% fetal calf serum (FCS), 1% L-glutamine (L-Gln), and puromycin (2 μg/mL). In addition, cell-binding affinity assays were also performed on PSMA + LNCaP (ATCC CRL-1740) and C4-2 (ATCC CRL-3314) cell lines. LNCaP was derived from a human lymph node metastatic lesion of PCa while C4-2 was isolated from an LNCaP-based tumor xenograft of an androgen-depleted mouse. Both cell lines were cultured as described above but in the absence of puromycin. Routine cell culture was performed twice a week at RT using phosphate-buffered saline (PBS, pH 7.4) for washing and 0.05% trypsin for cell detachment.
Cells (10^5 cells/well) were seeded in poly-L-lysine (PLL)-coated plates 24 h before the experiment. […] Another set of cells was treated analogically while the PSMA-inhibitor 2-(phosphonomethyl)pentane-1,5-dioic acid (2-PMPA; 100 mM, […]) was added in order to subtract the nonspecific binding. The respective radioligand was removed and cells were washed three times with 1 mL ice-cold PBS and the surface-bound radioactivity detached by incubating the cells twice with 500 μL glycine buffer (50 mM, pH 2.8) for 5 min. After washing the cells once with 1 mL ice-cold PBS, the internalized fraction was determined by subsequent cells lysis with 500 μL NaOH (0.3 M, pH 14). […] Three independent assays were performed.

[2] = n-Octanol/PBS distribution coefficient; format: physicochemical; settings: n-octanol/PBS pH 7.4
recombinant human PSMA = biological target: T1, recombinant human PSMA (Homo sapiens, UniProt Q04609); assay: HPLC-based PSMA enzyme inhibition assay with fluorescein-γ-Glu-Glu substrate; format: biochemical; settings: 20 pM recombinant human PSMA, 100 nM substrate, 37 °C; average ± SD (n = 3)
T1 construct: extracellular part of human PSMA (amino acids 44–750); made in house; host or cells: Drosophila Schneider's S2 cells (secreted into conditioned medium)
Experimental: The potency of the studied inhibitors against recombinant human PSMA was determined in vitro using an HPLC-based assay with fluorescein−γ-Glu–Glu as the substrate.[11]
Expression and purification of the extracellular part of human PSMA (amino acids 44–750) were performed essentially as described previously.[27] Briefly, the N-terminally tagged PSMA fusion was overexpressed in Schneider’s S2 cells and the conditioned medium concentrated and dialyzed by tangential flow filtration (Millipore, Mosheim, France).
The inhibitory potency was determined using a fluorescence-based assay described previously.[11] Briefly, 20 pM recombinant human PSMA was preincubated with a 3-fold dilution series of inhibitors in 50 mM Tris.HCl, 150 mM NaCl, and 0.001% C12 E8 for 10 min at 37 °C. The reaction was initiated by the addition of 100 nM substrate in a total volume 50 μL. Following 15 min incubation at 37 °C, the reaction was stopped by the addition of 50 μL of 0.1% TFA in 5% ACN. Reaction mixtures were analyzed by RP-HPLC (Shimadzu, HPLC Prominence system) equipped with a Kinetex 2.6 μm XB-C18 100 Å column and a fluorescence detector (λEX/λEM = 492/516). HPLC separation was performed using a linear solvent gradient over 11 min from 20 to 50% of eluent B (0.1% (v/v) TFA in ACN) at a flow rate of 0.6 mL/min. The mobile phase A was 0.1% (v/v) TFA in water. The noninhibited reaction was assigned 100% and the reaction without enzyme present was defined as 0%. Data were fitted using a nonlinear regression algorithm (GraphPad Prism Software, version 8) to calculate IC50 values from the inhibition curves. Three independent assays were performed for each compound.

[3] = biological target: T2, PSMA-positive C4-2 cell line (Homo sapiens, UniProt Q04609); assay: Competitive cell-binding affinity assay against [177Lu]Lu-PSMA-617, C4-2; settings: competition with 0.75 nM [177Lu]Lu-PSMA-617, 45 min RT; average ± SD (n = 3)
T2 construct: native LNCaP and LNCaP-derived C4-2 cell lines; host or cells: C4-2
Experimental: (§2) To validate the IC50 values determined by the in vitro enzymatic assay, the PSMA-expressing cell line LNCaP, its daughter cell line C4-2, and the PSMA-overexpressing cell line PC-3 PIP were utilized to compare the cell-binding affinities of P17 and P18 to PSMA-617. The IC50 values of P17 and P18 were assessed by competitive binding against [^177Lu]Lu-PSMA-617. […] For the transfected cell line PC-3 PIP, the IC50 values for all three compounds were determined to be approximately 10-fold higher.
as §1
(§3) The binding affinities of PSMA-617, P17, and P18 were determined using a competitive assay with [^177Lu]Lu-PSMA-617. All three compounds were incubated at 12 different concentrations (0, 0.5, 1, 2.5, 5, 10, 25, 50, 100, 500, 1,000, and 5000 nM) with 0.75 nM [^177Lu]Lu-PSMA-617 on either PSMA + cell lines PC3-PIP, LNCaP, or C4-2 or the PSMA– cell line PC3-flu plated at a concentration of 10^6 cells/well. After 45 min incubation at RT, the radioligand was removed and cells washed twice with 100 μL and once with 200 μL ice-cold PBS. […]

[4] = biological target: T3, PSMA-positive LNCaP cell line (Homo sapiens, UniProt Q04609); assay: Competitive cell-binding affinity assay against [177Lu]Lu-PSMA-617, LNCaP; settings: competition with 0.75 nM [177Lu]Lu-PSMA-617, 45 min RT; average ± SD (n = 3)
T3 construct: native LNCaP and LNCaP-derived C4-2 cell lines; host or cells: LNCaP
Experimental: as §2, §1, §3

[5] = biological target: T4, PSMA-overexpressing PC-3 PIP cell line (Homo sapiens, UniProt Q04609); assay: Competitive cell-binding affinity assay against [177Lu]Lu-PSMA-617, PC3-PIP; settings: competition with 0.75 nM [177Lu]Lu-PSMA-617, 45 min RT; average ± SD (n = 3)
T4 construct: host or cells: PC3-PIP (subline of the human PC3 prostate cancer line)
Experimental: as §2, §1, §3

[6] = Stability in DMSO solution by 1H NMR; format: physicochemical; settings: several days
Experimental: Characterization of the compounds was conducted extensively by one-dimensional (1D) ^1H, ^13C, and ^15N NMR (Figures S10–S15) and two-dimensional (2D) spectra, viz. COSY, HSQC, and HMBC (Figures S16–S21). Previous assignments of analogous compounds[5] were also used to provide unequivocal assignment of the ^1H, ^13C, and ^15N signals except for the DOTA macrocyclic ring assignments which could not be effected with certitude due to dynamic effects causing severe line broadening and thereby precluding correlations in the 2D spectra pertinent to the DOTA ring. The dynamic effects arising from the slow motional averaging of the DOTA ring on the NMR time scale leading to severe broadening of the signals of the DOTA ring were alleviated for the ^13C signals by the acquisition of spectra at lower field. Indeed, not all of the signals of the DOTA ring could be observed in the case of ^15N, unequivocally assigned in the case of ^13C, or uniquely discerned in the case of ^1H. However, all other signals though were able to be fully assigned and the spectra were otherwise fully consistent with the proposed structures and for both P17 and P18 the assigned structures were confirmed in terms of proton count, carbon count, and carbon multiplicities. […]

T3 sequence (Q04609 whole entry): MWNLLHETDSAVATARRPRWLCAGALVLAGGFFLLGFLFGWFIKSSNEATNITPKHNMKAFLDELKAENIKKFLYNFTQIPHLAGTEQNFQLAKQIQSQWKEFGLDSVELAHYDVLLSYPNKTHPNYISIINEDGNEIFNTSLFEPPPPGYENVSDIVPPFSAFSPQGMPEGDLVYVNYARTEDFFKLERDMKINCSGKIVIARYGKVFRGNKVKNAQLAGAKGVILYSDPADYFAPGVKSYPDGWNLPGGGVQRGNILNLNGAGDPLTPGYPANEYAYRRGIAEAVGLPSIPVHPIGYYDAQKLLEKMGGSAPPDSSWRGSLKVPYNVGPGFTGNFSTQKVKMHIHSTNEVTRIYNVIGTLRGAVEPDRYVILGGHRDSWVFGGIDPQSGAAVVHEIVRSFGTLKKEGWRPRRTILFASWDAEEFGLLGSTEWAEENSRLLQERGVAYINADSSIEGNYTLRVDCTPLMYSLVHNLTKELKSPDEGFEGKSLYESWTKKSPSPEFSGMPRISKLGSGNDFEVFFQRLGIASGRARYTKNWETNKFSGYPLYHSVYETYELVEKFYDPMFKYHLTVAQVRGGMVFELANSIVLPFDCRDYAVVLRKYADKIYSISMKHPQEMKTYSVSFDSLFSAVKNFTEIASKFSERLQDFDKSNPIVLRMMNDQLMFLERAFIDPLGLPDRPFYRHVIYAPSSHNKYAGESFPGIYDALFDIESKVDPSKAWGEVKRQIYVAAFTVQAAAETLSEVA
T4 sequence (Q04609 whole entry): as above
T2 sequence (Q04609 whole entry): as above
T1 sequence (Q04609 44-750): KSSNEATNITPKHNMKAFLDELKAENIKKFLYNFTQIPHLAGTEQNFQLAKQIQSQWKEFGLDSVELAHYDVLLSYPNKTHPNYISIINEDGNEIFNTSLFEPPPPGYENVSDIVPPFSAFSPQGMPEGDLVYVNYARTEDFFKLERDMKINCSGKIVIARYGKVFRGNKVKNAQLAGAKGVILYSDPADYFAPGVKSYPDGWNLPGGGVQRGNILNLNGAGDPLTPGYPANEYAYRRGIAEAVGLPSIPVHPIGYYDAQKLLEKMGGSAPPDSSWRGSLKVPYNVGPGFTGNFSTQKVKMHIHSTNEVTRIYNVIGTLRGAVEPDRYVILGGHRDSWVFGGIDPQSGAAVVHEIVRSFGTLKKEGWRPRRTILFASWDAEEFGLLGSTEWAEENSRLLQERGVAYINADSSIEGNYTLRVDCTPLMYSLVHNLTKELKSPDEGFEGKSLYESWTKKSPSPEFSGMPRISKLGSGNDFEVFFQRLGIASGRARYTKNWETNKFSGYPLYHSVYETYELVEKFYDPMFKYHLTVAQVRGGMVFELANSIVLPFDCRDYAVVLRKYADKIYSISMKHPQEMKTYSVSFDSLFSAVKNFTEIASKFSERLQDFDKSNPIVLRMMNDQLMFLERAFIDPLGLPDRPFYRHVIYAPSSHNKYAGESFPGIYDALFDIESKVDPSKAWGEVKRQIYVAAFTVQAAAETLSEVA

| SMILES | internalized (PC3-PIP cells) [% AA] | total binding (PC3-PIP cells) [% AA] | log D [2] | IC50 (recombinant human PSMA) [nM] | IC50 [3] [nM] | IC50 [4] [nM] | IC50 [5] [nM] | further results |
| --- | --- | --- | --- | --- | --- | --- | --- | --- |
| N[C@@H](CC=Cc1ccccc1)C(=O)O [3-styryl-L-Ala] | – | – | – | – | – | – | – | log Kow [1]: < 3 |
| O=C([O-])CN1CCN(CC(=O)[O-])CCN(CC(=O)NC[C@H]2CC[C@H](C(=O)N[C@@H](Cc3ccc4ccccc4c3)C(=O)NCCCC[C@H](NC(=O)N[C@@H](CCC(=O)O)C(=O)O)C(=O)O)CC2)CCN(CC(=O)[O-])CC1.[177Lu+3] [[^177Lu]Lu-PSMA-617, reference compound] | 8.2 ± 2.4 | 26.8 ± 14.2 | −3.27 ± 0.05 | – | – | – | – | – |
| O=C([O-])CN1CCN(CC(=O)[O-])CCN(CC(=O)NC[C@H]2CC[C@H](C(=O)N[C@@H](C/C=C/c3ccccc3)C(=O)NCCCC[C@H](NC(=O)N[C@@H](CCC(=O)O)C(=O)O)C(=O)O)CC2)CCN(CC(=O)[O-])CC1.[177Lu+3] [[^177Lu]Lu-P17] | 8.5 ± 2.4 | 20.1 ± 9.8 | −3.36 ± 0.05 | – | – | – | – | – |
| O=C([O-])CN1CCN(CC(=O)[O-])CCN(CC(=O)NCc2ccc(C(=O)N[C@@H](C/C=C/c3ccccc3)C(=O)NCCCC[C@H](NC(=O)N[C@@H](CCC(=O)O)C(=O)O)C(=O)O)cc2)CCN(CC(=O)[O-])CC1.[177Lu+3] [[^177Lu]Lu-P18] | 8.7 ± 2.9 | 33.7 ± 12.8 | −3.35 ± 0.04 | – | – | – | – | – |
| O=C(O)CC[C@H](NC(=O)N[C@@H](CCCCNC(=O)[C@H](Cc1ccc2ccccc2c1)NC(=O)[C@H]1CC[C@H](CNC(=O)CN2CCN(CC(=O)O)CCN(CC(=O)O)CCN(CC(=O)O)CC2)CC1)C(=O)O)C(=O)O [PSMA-617] | – | – | – | 0.05 ± 0.03 | 4.9 ± 0.9 | 6.9 ± 2.2 | 71 ± 8 | – |
| O=C(O)CC[C@H](NC(=O)N[C@@H](CCCCNC(=O)[C@H](C/C=C/c1ccccc1)NC(=O)c1ccc(CNC(=O)CN2CCN(CC(=O)O)CCN(CC(=O)O)CCN(CC(=O)O)CC2)cc1)C(=O)O)C(=O)O [P18] | – | – | – | 0.45 ± 0.09 | 9.5 ± 3 | 11.2 ± 4.8 | 111 ± 9 | stability in DMSO solution [6]: no sign of decomposition after several days |
| O=C(O)CC[C@H](NC(=O)N[C@@H](CCCCNC(=O)[C@H](C/C=C/c1ccccc1)NC(=O)[C@H]1CC[C@H](CNC(=O)CN2CCN(CC(=O)O)CCN(CC(=O)O)CCN(CC(=O)O)CC2)CC1)C(=O)O)C(=O)O [P17] | – | – | – | 0.3 ± 0.04 | 15.5 ± 2.5 | 12.9 ± 0.4 | 150 ± 30 | stability in DMSO solution [6]: no sign of decomposition after several days |
| N[C@@H](Cc1ccc2ccccc2c1)C(=O)O [2-naphthyl-L-Ala] | – | – | – | – | – | – | – | log Kow [1]: > 3 |
